Calls of active or inactive are those of the source.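 How the source made its calls: active means compounds giving half or more protection of infected cells from virus-caused growth loss, again on retest; inactive means the rest.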
Test system: CEM cells HIV-1 protection, formazan growth assay
Assay: NCI AIDS Antiviral Assay
Settings: for IC50: measured here: growth of uninfected CEM cells
In short: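 CEM (human) cells, HIV-1 infected vs uninfected, 5-point dosing, formazan growth read-out. Retest threshold 50% protection.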

| Structure (SMILES) | EC50 | IC50 | outcome |
| --- | --- | --- | --- |
| CCN(CC)CCC(=O)/C=C/c1ccc(Cl)c(Cl)c1 | > 200 µM | 5.13 µM | – |
| O=C1NC(=O)C2C(=O)NC(=O)C1C2(c1ccccc1)c1cc[nH]c1 (stereo not given) | > 22.4 µM | 16.6 µM | – |
| COc1ccc(Cc2cc(N=O)c(C)cc2O)cc1 | > 200 µM | 12.6 µM | – |
| CCOC(=O)c1ccc(NC(=O)c2cccc3c(Nc4ccc(S(=O)(=O)Nc5cc(C)on5)cc4)c4ccccc4nc23)cc1 | > 200 µM | 4.57 µM | – |
| O=C1CCC(=O)N1CNc1cccc(NCN2C(=O)CCC2=O)c1 | > 39.8 µM | > 39.8 µM | – |
| COC(=O)C1=C(CS(=O)c2ccc([N+](=O)[O-])cc2[N+](=O)[O-])C2C=CC1C2 (stereo not given) | – | – | inactive |
| CC1(OCc2ccccc2)C(=O)N2C1NCC2(C)C (stereo not given) | > 251 µM | 117 µM | – |
| O=C(COC(=O)c1cccc2c(=O)c3ccccc3[nH]c12)Nc1ccc(C(=O)O)cc1 | – | – | inactive |
| CC(C)c1cccc(C(C)C)c1NC(=O)C(=O)CC(=O)CC(c1ccccc1)c1c(O)c2ccccc2oc1=O (stereo not given) | > 468 µM | 229 µM | – |
| O=c1[nH]c(-c2ccccc2)nc2c1OCN(Cc1ccccc1)C2 | > 115 µM | 28.8 µM | – |
| CN1CCN(C)C12C=CC=CC21CC1 | – | – | inactive |
| CC(NNC(=S)N1CCCCCC1)c1cccnn1 (stereo not given) | > 200 µM | 0.355 µM | – |
| CC1=C(C)CC2(CCCCC2=O)S(=O)C1 (stereo not given) | > 1100 µM | 851 µM | – |
| O=c1cc(CSc2c(-c3ccccc3)c(=O)n(-c3ccccc3)c(=S)n2-c2ccccc2)[nH]c(=O)[nH]1 | > 200 µM | > 200 µM | – |
| O=C(O)CCc1cccc2c1oc1c(CCC(=O)O)cccc12 | > 794 µM | 191 µM | – |
| CCOC(=O)/C(C#N)=C/N(CC)/N=C/c1ccccc1 | > 200 µM | > 200 µM | – |
| C/C(O)=C(/C=N\C(=S)Nc1ccc(Cl)c(Cl)c1)C(=O)Nc1ccccc1C | > 79.4 µM | 40.7 µM | – |
| CC(=O)Nc1ccc(/C=C2\N=C(c3ccccc3)OC2=O)cc1 | > 12.3 µM | > 12.3 µM | – |

| Structure (SMILES) | EC50 | IC50 | outcome |
| --- | --- | --- | --- |
| Cc1[nH]c2ccccc2c1C1Cc2ccccc2N1C(=O)/C=C\C(=O)O (stereo not given) | > 724 µM | 41.7 µM | – |
| COc1ccc(NC(C)c2ccncc2)cc1 (stereo not given) | > 200 µM | > 200 µM | – |
| O=C1C2C3C=C4c5ccccc5N(c5ccccc5)C4(C2C(=O)N1c1ccc(Cl)cc1)[C@H]1C(=O)N(c2ccc(Cl)cc2)C(=O)[C@@H]31 (stereo not given in full) | > 3.16 µM | > 3.16 µM | – |
| O=c1c2cccnc2ncn1CCN1CCCCC1 | – | – | inactive |
| CC(C)(C)[Si](C)(C)OCC1OC(n2cnc3c(N)ncnc32)C(O[Si](C)(C)C(C)(C)C)C1O[Si](C)(C)C(C)(C)C (stereo not given) | > 200 µM | 44.7 µM | – |
| COc1ccc(-c2cc(-c3ccccc3)[nH]c(=S)c2C#N)cc1 | > 200 µM | 67.6 µM | – |
| Clc1ccc(C2=CC(c3ccccc3)N3C(=N[C@H]4CCCC[C@@H]43)N2)cc1 (stereo not given in full) | > 100 µM | 4.68 µM | – |
| Brc1ccc2c(ccc3nc4nnnn4nc32)c1 | > 17.4 µM | > 17.4 µM | – |
| O=C(CN1CCN(C(=O)OCc2ccccc2)CCN(CC(=O)N2CCCCC2)CCN(C(=O)OCc2ccccc2)CC1)N1CCCCC1 | > 200 µM | 10.2 µM | – |
| O=S1(=O)CCCc2c1ccc1ccccc21 | > 200 µM | > 200 µM | – |
| O=[N+]([O-])c1ccc(Nc2ccccc2)c2nonc12 | > 87.1 µM | 41.7 µM | – |
| ClC(c1ccccc1)(c1ccccc1)c1cccc(-c2cccc(C(Cl)(c3ccccc3)c3ccccc3)c2)c1 | – | – | inactive |
| Clc1ccc(CSc2ccc3nncc(SCc4ccc(Cl)c(Cl)c4)c3c2)cc1Cl | > 41.7 µM | 37.2 µM | – |
| Cc1ccc2c(c1CCCC(C)(C)O)C(=O)C(=O)C(C(C)C)=C2O | > 380 µM | 132 µM | – |
| CCN(CC)CC(=O)Nc1ccc(Cl)cc1C(O)c1ccccc1 (stereo not given) | > 200 µM | 120 µM | – |
| O=C1C2=C(c3ccccc31)C(c1ccc(Cl)cc1)NC(=S)N2 (stereo not given) | > 57.5 µM | 29.5 µM | – |
| COC1CCC2=CCC3C(=O)N(c4ccccc4)C(=O)C3C21 (stereo not given) | > 603 µM | > 603 µM | – |

Reference: PubChem BioAssay AID179 (DTP/NCI, 2004)
